Measurements reported in paper PMC9098178, “SAR of Novel 3-Arylisoquinolinones: meta-Substitution on the Aryl Ring Dramatically Enhances Antiproliferative Activity through Binding to Microtubules” (Journal of Medicinal Chemistry, 2022).

Columns and labels:
HUVECs = test: SRB assay of endothelial cell proliferation; type: cell-based; details: 24 h, up to 10 μM
Description: Compound 4 was further elucidated whether it blocked the formation of capillary-like tubes and disrupted the already existing tubes of HUVECs as a result of inducing endothelial cell death. Accordingly, the growth of HUVECs treated with 4 was investigated using the SRB assay. HUVECs were plated on 96-well plates without prior coating with Matrigel and then exposed to different concentrations of 4 for 24 h.
All cell lines used in the study were human-derived and purchased from ATCC (Manassas, USA). Breast adenocarcinoma MCF-7 and MDA-MB-231 cell lines were cultured in DMEM. Hepatocellular carcinoma HepG2 and SNU423 cell lines were grown in MEME combined with 1% (v/v) nonessential amino acids and RPMI supplemented with 2 mM glutamine, respectively. Lung adenocarcinoma A549 and colorectal carcinoma HCT116 cells were grown in RPMI (+2 mM glutamine). […]
Screening of the antiproliferative activity of 3-arylisoquinolinones was performed using the SRB assay as previously described.[56] […] Finally, the cellular protein-bound SRB was thoroughly dissolved in 10 mM Tris base, and the OD values were read at 510 nm using a plate reader (μQuant Microplate Spectrophotometer, Biotek, U.K.) coupled with Gen5 software (BioTek, U.K.). […] Cell growth was calculated using the following formula: cell growth (%) = (ODtest/ODcontrol) × 100.

purified bovine tubulin = test: Cell-free tubulin polymerization assay; type: biochemical
Description: Experimentally, the direct interaction of 4 with tubulin was investigated in a cell-free system using a tubulin polymerization assay. […] In control samples, α- and β-tubulin subunits were able to heterodimerize and assemble into microtubules in a time-dependent manner as indicated by increasing absorbance values over time. […] This indicates the incidence of fast polymerization associated with the formation of a denser microtubule mass. […] It is worth mentioning that microtubule dynamics can be potently altered by microtubule-stabilizing or -destabilizing compounds at doses 10- to 100-fold lower than those required for increasing or decreasing the microtubule polymer mass.[31]
The cell-free tubulin polymerization experiment was performed using the Tubulin Polymerization Assay Kit according to the manufacturer’s instructions (Millipore, Cat# 17-10194). The light absorbed by microtubules, which were formed upon tubulin polymerization, is directly proportional to the polymer mass. […] Immediately, the plate was placed in a 37 °C-prewarmed plate reader (BMG LABTECH FLUOstar Omega, Germany) and the absorbance was measured at 1 min intervals for 60 min at a wavelength of 350 nm. The delta absorbance (ΔA) was calculated by subtracting the absorbance values of zero time from those of the subsequent time points and then plotted versus time.

MCF-7 = test: SRB antiproliferative assay, MCF-7; type: cell-based, human; details: Homo sapiens, MCF7, 96 h treatment, mean ± SEM, read-out: IC50 MCF-7 (prescreen)
Description: Initially, the human breast cancer cell line MCF-7 was used in a prescreen analysis of the anticancer activity of 3-arylisoquinolinones. The cells were treated with serial concentrations of compounds 2–8 for 96 h prior to the assessment of proliferation using the sulforhodamine B (SRB) assay. For each compound, the concentration required to inhibit cell growth by 50% compared to that of the untreated control cells (IC50) was determined (Table 1).
(§1) All cell lines used in the study were human-derived and purchased from ATCC (Manassas, USA). Breast adenocarcinoma MCF-7 and MDA-MB-231 cell lines were cultured in DMEM. Hepatocellular carcinoma HepG2 and SNU423 cell lines were grown in MEME combined with 1% (v/v) nonessential amino acids and RPMI supplemented with 2 mM glutamine, respectively. Lung adenocarcinoma A549 and colorectal carcinoma HCT116 cells were grown in RPMI (+2 mM glutamine). All previous media were further supplemented with 10% heat-inactivated fetal bovine serum. The immortalized, normal liver THLE-3 cells were grown in BEGM (Lonza, Cat# CC-3170) onto precoated vessels according to ATCC’s instructions. Human umbilical vein endothelial cells (HUVECs) were cultured in EGM-2 (Lonza, Cat# CC-3162). All of the cells were maintained at 37 °C and 5% CO2 in a humidified incubator.
(§2) Screening of the antiproliferative activity of 3-arylisoquinolinones was performed using the SRB assay as previously described.[56] Exponentially growing HepG2, SNU423, MDA-MB-231, MCF-7, A549, HCT116, THLE-3, and HUVECs were seeded in 96-well plates at densities of 3000, 2000, 1500, 2500, 1000, 1000, 4000, and 4000 cells/well, respectively. These densities were experimentally selected so that the DMSO-treated cells (control) were approximately 80–90% confluent at the assay’s endpoint, and their optical density (OD) values fell within the assay’s linear range. After overnight incubation, the cells were treated with a range of concentrations of the respective compounds for 96 h, 24 h followed by 72 h compound-free incubation or 24 h (for HUVECs only). After treatment, cell monolayers were fixed with 10% (w/v) trichloroacetic acid for 1 h at 4 °C, washed, and dried. Then, the cells were exposed to 0.4% (w/v) SRB dye (prepared in 1% (v/v) acetic acid; Botium, Cat# 80100) for 15 min followed by several 1% acetic acid washing and then drying. Finally, the cellular protein-bound SRB was thoroughly dissolved in 10 mM Tris base, and the OD values were read at 510 nm using a plate reader (μQuant Microplate Spectrophotometer, Biotek, U.K.) coupled with Gen5 software (BioTek, U.K.). Compound-induced changes in cell growth were inferred from changes in OD values. Cell growth was calculated using the following formula: cell growth (%) = (ODtest/ODcontrol) × 100.

MDA-MB-231 = test: SRB antiproliferative assay, MDA-MB-231; type: cell-based, human; details: Homo sapiens, MDA-MB-231, 96 h treatment, mean ± SEM, read-out: IC50 MDA-MB-231
Description: (§3) In light of this substantial change in activity between the meta and para compounds, a more comprehensive analysis of the antiproliferative activity was performed for the meta-/para-3-arylisoquinolinone pairs 2 and 3, 4, and 5, as well as 6. A panel of breast (MDA-MB-231), liver (HepG2, SNU423), lung (A549), and colon (HCT116) cancer cell lines were treated with the five 3-arylisoquinolinone analogs for 96 h followed by the SRB assay. The dose–response curves (including those for MCF-7) are presented in Figure S22, and their relevant IC50 values are listed in Table 1. […] The differential activity between meta- and para-3-arylisoquinolinones was reproduced in the National Cancer Institute (NCI) one-dose screen using a panel of 59 cancer cell lines (Figure S23).
as §1, §2

HepG2 = test: SRB antiproliferative assay, HepG2; type: cell-based, human; details: Homo sapiens, HepG2, 96 h treatment, mean ± SEM, read-out: IC50 HepG2
Description: as §3, §1, §2

A549 = test: SRB antiproliferative assay, A549; type: cell-based, human; details: Homo sapiens, A549, 96 h treatment, mean ± SEM, read-out: IC50 A549
Description: as §3, §1, §2

| Compound | effect on proliferation of HUVECs (HUVECs) | suppression of tubulin polymerization at highest concentration (purified bovine tubulin; 20 μM, nocodazole 10 μM) | effect on tubulin polymerization (purified bovine tubulin; 5, 10, 20 μM, 37 °C, absorbance 350 nm) | IC50 (MCF-7) [µM] | IC50 (MDA-MB-231) [µM] | IC50 (HepG2) [µM] | IC50 (A549) [µM] |
| --- | --- | --- | --- | --- | --- | --- | --- |
| O=c1[nH]c(-c2cccc(F)c2)cc2cc(F)ccc12 [compound 4, 6-Fluoro-3-(3-fluorophenyl)isoquinolin-1(2H)-one] | not able to significantly diminish the proliferation of HUVECs | as effective in suppressing tubulin polymerization as the positive control (nocodazole) | hindered tubulin polymerization in a concentration-dependent manner |  |  |  |  |
| O=c1[nH]c(-c2ccc(F)cc2)cc2cc(F)ccc12 [compound 5, 6-Fluoro-3-(4-fluorophenyl)isoquinolin-1(2H)-one] |  |  |  | > 50 | > 50 | > 50 | > 50 |
